Experiments:
[1] = target: JEV NS3 helicase (ATPase activity) (Japanese encephalitis virus, UniProt P27395); test: Effect on the ATPase activity of NS3 helicase (Kinase-Glo Plus luminescence); assay type: biochemical; settings: 200 μM compound, 30 min
Method: The effect of each compound on ATPase activity was tested using a nonradioactive method as previously described. […] The reaction mixture comprised 3 μM of recombinant NS3 helicase and 100 μM ATP in ATPase reaction buffer (20 mM Tris-HCl pH 8.0, 50 mM NaCl, 10 mM MgCl2). Three reactions were conducted for each test. After incubation at 37 °C for 30 min, an equal volume of Kinase-Glo Plus reagent (Promega) was added to each well to quantitate the remaining ATP. The luminescence value of each well was tested by an Infinite 200 PRO multimode reader.

JEV [2] = test: Antiviral effect by Western blot of JEV envelope (E) protein in BHK-21 cells; assay type: cell-based, Japanese encephalitis virus; settings: 48 h, normalized to GAPDH; for reduction of expression of E protein: 20 μM, relative to non-compound treated group
JEV [3] = test: Plaque reduction assay in BHK-21 cells; settings: 48 h, untreated control 3.03 × 10^6 PFU/mL
[4] = Compound cytotoxicity (cell viability); settings: hamster
JEV [5] = test: Antiviral effect by indirect immunofluorescence assay (IFA) of NS5 in BHK-21 cells; settings: 48 h, JEV-infected control 84.03%
[6] = target: JEV NS3 helicase (unwinding activity) (Japanese encephalitis virus, UniProt P27395); test: NS3 helicase unwinding inhibition, fluorescence resonance energy transfer (FRET) assay; settings: for highest inhibitory level on NS3 helicase unwinding activity: concentration-dependent inhibition, levels reaching as high as; for inhibition of NS3 unwinding activity in helicase inhibitor screening: screening of 41 selected compounds, FRET assay
JEV [7] = test: Determination of EC50 (CPE inhibition, Celltiter-Glo cell viability of JEV-infected BHK-21 cells); settings: Japanese encephalitis virus, BHK-21, 120 h, read-out: 50% effective concentration (EC50)
WNV NS2B-NS3 protease = settings: cited from earlier work
WNV = WNV in cells; read-out: EC50, inhibitory effect on the virus in cells; cited from earlier work

JEV NS3 helicase (unwinding activity), sequence (P27395 1684-2123): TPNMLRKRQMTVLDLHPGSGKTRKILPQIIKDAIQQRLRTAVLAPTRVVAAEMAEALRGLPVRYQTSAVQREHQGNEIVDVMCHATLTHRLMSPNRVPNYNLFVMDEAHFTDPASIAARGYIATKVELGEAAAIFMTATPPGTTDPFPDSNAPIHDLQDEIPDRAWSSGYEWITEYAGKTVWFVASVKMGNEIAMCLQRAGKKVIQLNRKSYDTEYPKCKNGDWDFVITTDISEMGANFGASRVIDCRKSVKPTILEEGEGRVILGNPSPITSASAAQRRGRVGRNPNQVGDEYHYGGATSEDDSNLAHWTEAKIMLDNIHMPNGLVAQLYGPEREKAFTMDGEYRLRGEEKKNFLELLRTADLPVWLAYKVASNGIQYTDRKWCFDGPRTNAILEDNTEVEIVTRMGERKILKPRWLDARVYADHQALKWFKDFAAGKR
JEV NS3 helicase (ATPase activity), sequence (P27395 1684-2123): as above

Molecule | inhibition of ATPase activity of NS3 helicase [1] | reduction of expression of E protein (JEV [2]) [%] | average virus titer (JEV [3]; 20 μM) | average virus titer (JEV [3]; 30 μM) | average virus titer (JEV [3]; 40 μM) | CC50 at 120 h [4] [µM] | level of JEV-positive cells (NS5 positive) (JEV [5]; 5 μM) [%] | level of JEV-positive cells (NS5 positive) (JEV [5]; 25 μM) [%] | IC50 [6] [µM] | highest inhibitory level on NS3 helicase unwinding activity [6] [%] | inhibition of NS3 unwinding activity in helicase inhibitor screening [6] | EC50 (JEV [7]) [µM] | inhibition of E protein expression (JEV [2]; 5 μM) [%] | average virus titer (JEV [3]; 10 μM) | viability at 120 h, 200 µM [4] [%] | Ki (WNV NS2B-NS3 protease) [µM] | EC50 (WNV) [µM]
CS(=O)(=O)c1ccc2nc(NC(=O)c3ccc(Cn4cc([N+](=O)[O-])cn4)cc3)sc2c1 [compound 1] | do not inhibit the ATPase activity | 70.1 | 2.7 × 10^4 PFU/mL | 2.1 × 10^4 PFU/mL | 8.9 × 10^3 PFU/mL | 168 | 58.71 | 13.29 | 148 | 79 | more than 60% | 25.7 |  |  |  |  | 
CCCC(=O)Nc1nc2ccc(NC(=S)NC(=O)c3cccs3)cc2s1 [compound 2] | do not inhibit the ATPase activity | 94.8 | 3.6 × 10^4 PFU/mL | 2.6 × 10^4 PFU/mL | 1.8 × 10^4 PFU/mL |  | 50.40 | 10.07 | 150 | 73 | more than 60% | 23.5 | 86.3 | 4.65 × 10^4 PFU/mL | > 60 |  | 
phenacetyl-KKR-Aldehyde |  |  |  |  |  |  |  |  |  |  |  |  |  |  |  | 0.009 | 1.6

From publication PMC5041104, “Structure-based discovery of two antiviral inhibitors targeting the NS3 helicase of Japanese encephalitis virus” (Scientific Reports, 2016)
